In one test the target is human PDE1B enzyme (Homo sapiens (Human), UniProt Q01064). Put plainly: IMAP TR-FRET PDE1B enzymatic assay. The test is classed as biochemical. The note with it: negative log of half-maximal molar inhibitory concentration; 200 nM FAM-cAMP; values given as bins. In a few lines: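 Full-length GST-tagged human PDE1B (250 pg/well) in IMAP BSA buffer with 10 U/ml calmodulin and 2.5 mM CaCl2; compound pre-incubated 5 min at room temperature, then 200 nM (final) FAM-cAMP for 30 min. IMAP binding reagent/Tb added, 1 h; TR-FRET 520/490 ratio read. IC50 from sigmoidal dose-response fit.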
Consider `Cc1oc2ncnc(NC3(C)CC3)c2c1C(=O)N1CCc2c(O)cccc2C1` [Example 329, 2-{6-Methyl-4-[(1-methylcyclopropyl)amino]furo[2,3-d]pyrimidine-5-carbonyl}-1,2,3,4-tetrahydroisoquinolin-5-ol], for which the “PDE1b (pIC50)” value is above 8.
Take `Cc1oc2ncnc(NC3(C)CC3)c2c1C(=O)N1CCC(c2ncc(F)cc2Cl)CC1` [Example 334, 5-[4-(3-Chloro-5-fluoropyridin-2-yl)piperidine-1-carbonyl]-6-methyl-N-(1-methylcyclopropyl)furo[2,3-d]pyrimidin-4-amine]: the “PDE1b (pIC50)” value is above 8.
On the same count and under the same terms, then `Cc1oc2ncnc(NC3(C)CC3)c2c1C(=O)N1CCC(c2ncc(Cl)cn2)C1` (stereo not shown) [Example 335, 5-[3-(5-Chloropyrimidin-2-yl)pyrrolidine-1-carbonyl]-6-methyl-N-(1-methylcyclopropyl)furo[2,3-d]pyrimidin-4-amine], with above 8; and `Cc1oc2ncnc(NC3(C)CC3)c2c1C(=O)N1CCc2ccc(O)cc2C1C` (stereo not shown) [Example 338, 1-Methyl-2-{6-methyl-4-[(1-methylcyclopropyl)amino]furo[2,3-d]pyrimidine-5-carbonyl}-1,2,3,4-tetrahydroisoquinolin-7-ol], with above 8.
Still for that read-out and setting: then `Cc1oc2ncnc(NC3(C)CC3)c2c1C(=O)N1CCc2c(ncnc2NCC2CC2)C1` [Example 343, 5-{4-[(Cyclopropylmethyl)amino]-5H,6H,7H,8H-pyrido[3,4-d]pyrimidine-7-carbonyl}-6-methyl-N-(1-methylcyclopropyl)furo[2,3-d]pyrimidin-4-amine], with above 8; and `Cc1oc2ncnc(NC3(C)CC3)c2c1C(=O)N1CCC(c2ncc(Cl)cn2)CC1` [Example 344, 5-[4-(5-Chloropyrimidin-2-yl)piperidine-1-carbonyl]-6-methyl-N-(1-methylcyclopropyl)furo[2,3-d]pyrimidin-4-amine], with above 8; and `COc1ccnc(C2CCN(C(=O)c3c(C)oc4ncnc(NC5(C)CC5)c34)CC2)n1` [Example 345, 5-[4-(4-Methoxypyrimidin-2-yl)piperidine-1-carbonyl]-6-methyl-N-(1-methylcyclopropyl)furo[2,3-d]pyrimidin-4-amine], with above 8.
Still for that read-out and setting: then `Cc1oc2ncnc(NC3(C)CC3)c2c1C(=O)N1CCC(c2ccc(O)cc2)C1` (stereo not shown) [Example 346, 4-(1-{6-Methyl-4-[(1-methylcyclopropyl)amino]furo[2,3-d]pyrimidine-5-carbonyl}pyrrolidin-3-yl)phenol], with above 8; and `Cc1oc2ncnc(NC3(C)CC3)c2c1C(=O)N1CCC(c2ccc(Cl)cn2)C1` (stereo not shown) [Example 348, 5-[3-(5-Chloropyridin-2-yl)pyrrolidine-1-carbonyl]-6-methyl-N-(1-methylcyclopropyl)furo[2,3-d]pyrimidin-4-amine], with above 8.
As for `Cc1oc2ncnc(NC3(C)CC3)c2c1C(=O)N1CCC(c2nc(Cl)ncc2F)CC1` [Example 351, 5-[4-(2-Chloro-5-fluoropyrimidin-4-yl)piperidine-1-carbonyl]-6-methyl-N-(1-methylcyclopropyl)furo[2,3-d]pyrimidin-4-amine], the “PDE1b (pIC50)” value is above 8.
Take `Cc1oc2ncnc(NC3(C)CC3)c2c1C(=O)N1CC(c2cccc(F)n2)C1` [Example 354, 5-[3-(6-Fluoropyridin-2-yl)azetidine-1-carbonyl]-6-methyl-N-(1-methylcyclopropyl)furo[2,3-d]pyrimidin-4-amine]: the “PDE1b (pIC50)” value was above 8.
Consider `Cc1oc2ncnc(NC3(C)CC3)c2c1C(=O)N1CCC(c2ncc(O)cn2)CC1` [Example 355, 2-(1-{6-Methyl-4-[(1-methylcyclopropyl)amino]furo[2,3-d]pyrimidine-5-carbonyl}piperidin-4-yl)pyrimidin-5-ol], for which the “PDE1b (pIC50)” value is listed as above 8.

The test is the same for the next values; noted with them: negative log of half-maximal molar inhibitory concentration; 200 nM FAM-cAMP; values given as bins; read-out: PDE1b (pIC50) (converted).
As for `COc1ccc(-c2cc(CNC(=O)c3c(C)oc4ncnc(NC5(C)CC5)c34)no2)cc1` [Example 326, N-{[5-(4-Methoxyphenyl)-1,2-oxazol-3-yl]methyl}-6-methyl-4-[(1-methylcyclopropyl)amino]furo[2,3-d]pyrimidine-5-carboxamide], the IC50 was 10 to 100 nM.
Consider `COc1cnc(N2CCN(C(=O)c3c(C)oc4ncnc(NC5(C)CC5)c34)CC2)nc1` [Example 327, 5-[4-(5-Methoxypyrimidin-2-yl)piperazine-1-carbonyl]-6-methyl-N-(1-methylcyclopropyl)furo[2,3-d]pyrimidin-4-amine], for which the IC50 was 10 to 100 nM.
On to `Cc1oc2ncnc(NC3(C)CC3)c2c1C(=O)NCc1cc(C(N)=O)on1` [Example 328, 3-[({6-Methyl-4-[(1-methylcyclopropyl)amino]furo[2,3-d]pyrimidin-5-yl}formamido)methyl]-1,2-oxazole-5-carboxamide], for which the IC50 was 10 to 100 nM.
For the molecule `Cc1oc2ncnc(NC3(C)CC3)c2c1C(=O)N1CCc2cc(O)ccc2C1` [Example 330, 2-{6-Methyl-4-[(1-methylcyclopropyl)amino]furo[2,3-d]pyrimidine-5-carbonyl}-1,2,3,4-tetrahydroisoquinolin-6-ol], the IC50 was 10 to 100 nM.
Regarding `Cc1oc2ncnc(NC3(C)CC3)c2c1C(=O)N1CCc2cccc(O)c2C1` [Example 331, 2-{6-Methyl-4-[(1-methylcyclopropyl)amino]furo[2,3-d]pyrimidine-5-carbonyl}-1,2,3,4-tetrahydroisoquinolin-8-ol], the IC50 is 10 to 100 nM.
Same read-out and setting: as for `Cc1oc2ncnc(NC3(C)CC3)c2c1C(=O)N1CCc2ccc(O)cc2C1` [Example 332, 2-{6-Methyl-4-[(1-methylcyclopropyl)amino]furo[2,3-d]pyrimidine-5-carbonyl}-1,2,3,4-tetrahydroisoquinolin-7-ol], the figure is 10 to 100 nM.
For `Cc1oc2ncnc(NC3(C)CC3)c2c1C(=O)N1CCc2ncc(O)cc2C1` [Example 333, 6-{6-Methyl-4-[(1-methylcyclopropyl)amino]furo[2,3-d]pyrimidine-5-carbonyl}-5,6,7,8-tetrahydro-1,6-naphthyridin-3-ol], the IC50 is 100 to 1000 nM.
On the same count and under the same terms, as for `COc1cc(CNC(=O)c2c(C)oc3ncnc(NC4(C)CC4)c23)ccc1F` [Example 336, N-[(4-Fluoro-3-methoxyphenyl)methyl]-6-methyl-4-[(1-methylcyclopropyl)amino]furo[2,3-d]pyrimidine-5-carboxamide], the figure is 10 to 100 nM; as for `Cc1oc2ncnc(NC3(C)CC3)c2c1C(=O)N1CCc2c(cc[nH]c2=O)C1` [Example 337, 6-{6-Methyl-4-[(1-methylcyclopropyl)amino]furo[2,3-d]pyrimidine-5-carbonyl}-1,2,5,6,7,8-hexahydro-2,6-naphthyridin-1-one], 10 to 100 nM.
The same measure, in the same setting: then `Cc1oc2ncnc(NC3(C)CC3)c2c1C(=O)N1CCC(c2cncc(F)c2)C1` (stereo not shown) [Example 339, 5-[3-(5-Fluoropyridin-3-yl)pyrrolidine-1-carbonyl]-6-methyl-N-(1-methylcyclopropyl)furo[2,3-d]pyrimidin-4-amine], with 10 to 100 nM.
As to `Cc1oc2ncnc(NC3(C)CC3)c2c1C(=O)N1CCc2c(ncnc2NC2CC2)C1` [Example 342, 5-[4-(Cyclopropylamino)-5H,6H,7H,8H-pyrido[3,4-d]pyrimidine-7-carbonyl]-6-methyl-N-(1-methylcyclopropyl)furo[2,3-d]pyrimidin-4-amine], the IC50 is 10 to 100 nM.
For `Cc1oc2ncnc(NC3(C)CC3)c2c1C(=O)N1CCC(O)(c2ccccc2)C1` (stereo not shown) [Example 347, 1-{6-Methyl-4-[(1-methylcyclopropyl)amino]furo[2,3-d]pyrimidine-5-carbonyl}-3-phenylpyrrolidin-3-ol], the IC50 was 10 to 100 nM.
Consider `Cc1oc2ncnc(NC3(C)CC3)c2c1C(=O)NC1(c2ncccn2)CC1` [Example 349, 6-Methyl-4-[(1-methylcyclopropyl)amino]-N-[1-(pyrimidin-2-yl)cyclopropyl]furo[2,3-d]pyrimidine-5-carboxamide], for which the IC50 is 10 to 100 nM.
Consider `Cc1cc(C(C)NC(=O)c2c(C)oc3ncnc(NC4(C)CC4)c23)no1` (stereo not shown) [Example 350, 6-Methyl-N-[1-(5-methyl-1,2-oxazol-3-yl)ethyl]-4-[(1-methylcyclopropyl)amino]furo[2,3-d]pyrimidine-5-carboxamide], for which the IC50 is 10 to 100 nM.
Take `Cc1oc2ncnc(NC3(C)CC3)c2c1C(=O)NCc1cc(-c2cnn(C)c2)on1` [Example 352, 6-Methyl-N-{[5-(1-methyl-1H-pyrazol-4-yl)-1,2-oxazol-3-yl]methyl}-4-[(1-methylcyclopropyl)amino]furo[2,3-d]pyrimidine-5-carboxamide]: the IC50 is 10 to 100 nM.
Still for that read-out and setting: as for `Cc1oc2ncnc(NC3(C)CC3)c2c1C(=O)NC1(CO)CCC1` [Example 353, N-[1-(Hydroxymethyl)cyclobutyl]-6-methyl-4-[(1-methylcyclopropyl)amino]furo[2,3-d]pyrimidine-5-carboxamide], the figure is 10 to 100 nM; as for `Cc1oc2ncnc(NC3(C)CC3)c2c1C(=O)N1CCC(c2ncc(F)cn2)CC1` [Example 356, 5-[4-(5-Fluoropyrimidin-2-yl)piperidine-1-carbonyl]-6-methyl-N-(1-methylcyclopropyl)furo[2,3-d]pyrimidin-4-amine], 10 to 100 nM; as for `Cc1oc2ncnc(NC3(C)CC3)c2c1C(=O)N1CCN(c2ncc(F)cn2)CC1C` (stereo not shown) [Example 357, 5-[4-(5-Fluoropyrimidin-2-yl)-2-methylpiperazine-1-carbonyl]-6-methyl-N-(1-methylcyclopropyl)furo[2,3-d]pyrimidin-4-amine], 10 to 100 nM.
On the same count and under the same terms, then `Cc1oc2ncnc(NC3(C)CC3)c2c1C(=O)N1CCN(c2ncc(F)cn2)C(C)C1` (stereo not shown) [Example 358, 5-[4-(5-Fluoropyrimidin-2-yl)-3-methylpiperazine-1-carbonyl]-6-methyl-N-(1-methylcyclopropyl)furo[2,3-d]pyrimidin-4-amine], with 10 to 100 nM.

Source of the values: patent publication US20250145633A1, “SUBSTITUTED FURANOPYRIMIDINE COMPOUNDS AS PDE1 INHIBITORS” (Dart NeuroScience, LLC, priority 2017, published 2025).
